Test system: HSP70
Experiment: HSP70 levels in Neuro 2a cells, ELISA
Format: cell-based, mouse
Settings: 10 nM, 48 hrs compound then 24 hrs GGTI-298
Procedure: Mouse neuroblastoma 2a cells were cultured in DMEM with 10% FBS for 24 hrs. […] After 24 hrs cells were harvested and lysates were prepared and analyzed by ELISA for HSP70. Compound ID numbers in table refer to structures in Table 1 and Table 2.

Q: Which “HSP70 level, ELISA signal (absence of compounds normalized as 1.00)” value does the source give for `CC(C)=CCC/C(C)=C/CC/C(C)=C/COC(=S)NCCCN1CCOCC1` [Compound 9k, Morpholinyl-N-3′-propyl 2E, 6E-farnesyl thiocarbamate] here?
A: 1.13

Same assay, conditions: 100 nM, 48 hrs compound then 24 hrs GGTI-298

Q: `CCCCCCNC(=O)OC(C)CC/C=C(\C)CC/C=C(\C)CC/C=C(\C)CCC=C(C)C` (racemic) [Compound 23f, 5E, 9E, 13E-Geranylgeranyl-rac-prop-2-yl n-hexyl carbamate] was tested. Which “HSP70 level, ELISA signal (absence of compounds normalized as 1.00)” value did it give?
A: 0.91

Q: With `CC(C)=CCC/C(C)=C/CC/C(C)=C/CC/C(C)=C/COC(=O)N1CCN(C)CC1` [Compound 40a] as the compound, how does the “HSP70 level, ELISA signal (absence of compounds normalized as 1.00)” value read?
A: 0.99

Q: For `COCCC(=O)C(C/C=C(\C)CC/C=C(\C)CC/C=C(\C)CCC=C(C)C)C(=O)OC` (centres unmarked) [Compound 81], which “HSP70 level, ELISA signal (absence of compounds normalized as 1.00)” value is on record?
A: 1.12

Q: `CC(C)=CCC/C(C)=C/CC/C(C)=C/CC/C(C)=C/C1=N[C@H](CC(C)C)C(=O)O1` [Compound 37c, (R)-4-isobutyl-2-((1E,5E,9E)-2,6,10,14-tetramethylpentadeca-1,5,9,13-tetraen-1-yl)oxazol-5(4H)-one] was tested. Which “HSP70 level, ELISA signal (absence of compounds normalized as 1.00)” value did it give?
A: 0.99

Q: With `CC(C)=CCC/C(C)=C/CC/C(C)=C/CC/C(C)=C/COC(=S)Nc1ccccc1` [Compound 10k, Phenyl 2E,6E,10E-geranylgeranyl thiocarbamate] as the compound, how does the “HSP70 level, ELISA signal (absence of compounds normalized as 1.00)” value read?
A: 1.11

Q: Which “HSP70 level, ELISA signal (absence of compounds normalized as 1.00)” value does the source give for `CCCCCNC(=O)OC(C)CC/C=C(\C)CC/C=C(\C)CC/C=C(\C)CCC=C(C)C` (racemic) [Compound 23b, 5E, 9E, 13E-Geranylgeranyl-rac-prop-2-yl n-pentyl carbamate] here?
A: 1.13

Q: For `CCC(=O)CC/C=C(\C)CC/C=C(\C)CC/C=C(\C)CCC=C(C)C` [Compound 61], which “HSP70 level, ELISA signal (absence of compounds normalized as 1.00)” value is on record?
A: 0.98

Q: `CC(C)=CCC/C(C)=C/CC/C(C)=C/CC/C(C)=C/CCC(C)OC(=O)NC1CCCCCC1` (racemic) [Compound 23e, Cycloheptyl 5E, 9E, 13E-geranylgeranyl-rac-prop-2-yl carbamate] was tested. Which “HSP70 level, ELISA signal (absence of compounds normalized as 1.00)” value did it give?
A: 0.97

Q: With `CCOC(=O)C=C1CCCCC1` [Compound 93] as the compound, how does the “HSP70 level, ELISA signal (absence of compounds normalized as 1.00)” value read?
A: 0.87

Q: With `CCOC(=O)C(C)(C/C=C(\C)CC/C=C(\C)CC/C=C(\C)CCC=C(C)C)C(C)=O` (centres unmarked) [Compound 78] as the compound, how does the “HSP70 level, ELISA signal (absence of compounds normalized as 1.00)” value read?
A: 1.00

Q: For `CON=C(C)CC/C=C(\C)CC/C=C(\C)CC/C=C(\C)CCC=C(C)C` [Compound 104], which “HSP70 level, ELISA signal (absence of compounds normalized as 1.00)” value is on record?
A: 0.90

Q: For `CC(C)=CCC/C(C)=C/CC/C(C)=C/CCC(=O)C(C)(C)C` [Compound 100], which “HSP70 level, ELISA signal (absence of compounds normalized as 1.00)” value is on record?
A: 1.14

Q: Which “HSP70 level, ELISA signal (absence of compounds normalized as 1.00)” value does the source give for `CCOC(=O)C(C/C=C(\C)CC/C=C(\C)CC/C=C(\C)CCC=C(C)C)C(=O)C12CC3CC(CC(C3)C1)C2` (centres unmarked) [Compound 71] here?
A: 1.03

Q: `CCOC(=O)/C=C/C=C(\C)CC/C=C(\C)CC/C=C(\C)CCC=C(C)C` [Compound 65] was tested. Which “HSP70 level, ELISA signal (absence of compounds normalized as 1.00)” value did it give?
A: 0.90

Q: For `CCCC(=O)CC/C=C(\C)CC/C=C(\C)CC/C=C(\C)CCC=C(C)C` [Compound 73], which “HSP70 level, ELISA signal (absence of compounds normalized as 1.00)” value is on record?
A: 0.99

Q: For `CC(C)=CCC/C(C)=C/CC/C(C)=C/CC/C(C)=C/CCC(=O)c1ccoc1` [Compound 69], which “HSP70 level, ELISA signal (absence of compounds normalized as 1.00)” value is on record?
A: 0.90

Q: `CC(C)=CCC/C(C)=C/CC/C(C)=C/c1ncc(C)o1` [Compound 15, 5-methyl-2-((1E,5E)-2,6,10-trimethylundeca-1,5,9-trien-1-yl)oxazole] was tested. Which “HSP70 level, ELISA signal (absence of compounds normalized as 1.00)” value did it give?
A: 1.08

Q: For `COCC(=O)C(C/C=C(\C)CC/C=C(\C)CC/C=C(\C)CCC=C(C)C)C(=O)OC` (centres unmarked) [Compound 80], which “HSP70 level, ELISA signal (absence of compounds normalized as 1.00)” value is on record?
A: 1.02

Q: With `CCCC(=O)C(C/C=C(\C)CC/C=C(\C)CC/C=C(\C)CCC=C(C)C)C(=O)OCC` (centres unmarked) [Compound 70] as the compound, how does the “HSP70 level, ELISA signal (absence of compounds normalized as 1.00)” value read?
A: 1.07

Same assay, conditions: 10uM, 48 hrs compound then 24 hrs GGTI-298

Q: Which “HSP70 level, ELISA signal (absence of compounds normalized as 1.00)” value does the source give for `CC(C)=CCC/C(C)=C/c1nc(-c2ccc(F)cc2)no1` [Compound 35b, (E)-5-(2,6-dimethylhepta-1,5-dien-1-yl)-3-(4-fluorophenyl)-1,2,4-oxadiazole] here?
A: 0.95

Q: With `CC(C)=CCC/C(C)=C/CC/C(C)=C/CC/C(C)=C/COC(=O)c1cc([N+](=O)[O-])cc([N+](=O)[O-])c1` [Compound 2g, 2E, 6E, 10E-Geranylgeranyl-3′,5′-dinitrobenzoate] as the compound, how does the “HSP70 level, ELISA signal (absence of compounds normalized as 1.00)” value read?
A: 0.91

Q: How did the “HSP70 level, ELISA signal (absence of compounds normalized as 1.00)” value turn out when `COc1cc(NC(=O)OC/C=C(\C)CC/C=C(\C)CC/C=C(\C)CCC=C(C)C)cc(OC)c1OC` [Compound 7v, 3′,4′,5′-Trimethoxyphenyl 2E, 6E, 10E-geranylgeranyl carbamate] was run?
A: 1.13

Q: With `CC(C)=CCC/C(C)=C/CC/C(C)=C/CC/C(C)=C/COC(=O)NCc1ccccc1` [Compound 7l, Benzyl 2E, 6E, 10E-geranylgeranyl carbamate] as the compound, how does the “HSP70 level, ELISA signal (absence of compounds normalized as 1.00)” value read?
A: 1.10

Q: For `CCNC(=S)OC/C=C(\C)CC/C=C(\C)CCC=C(C)C` [Compound 9a, Ethyl 2E, 6E-farnesyl thiocarbamate], which “HSP70 level, ELISA signal (absence of compounds normalized as 1.00)” value is on record?
A: 0.94

Q: For `CCCCCN(C)C/C=C(\C)CC/C=C(\C)CC/C=C(\C)CCC=C(C)C` [Compound 17b, N-Methyl-N-n-pentyl-2E,6E,10E-Geranylgeranyl amine], which “HSP70 level, ELISA signal (absence of compounds normalized as 1.00)” value is on record?
A: 1.08

Q: How did the “HSP70 level, ELISA signal (absence of compounds normalized as 1.00)” value turn out when `CCCCCCNC(=S)OC/C=C(\C)CC/C=C(\C)CC/C=C(\C)CCC=C(C)C` [Compound 10h, n-Hexyl 2E,6E,10E-geranylgeranyl thiocarbamate] was run?
A: 1.58

Q: `CC(C)=CCC/C(C)=C/CC/C(C)=C/CC/C(C)=C/C1=N[C@H](C(C)C)CO1` [Compound 27e, (R)-4-isopropyl-2-((1E,5E,9E)-2,6,10,14-tetramethylpentadeca-1,5,9,13-tetraen-1-yl)-4,5-dihydrooxazole] was tested. Which “HSP70 level, ELISA signal (absence of compounds normalized as 1.00)” value did it give?
A: 1.11

Q: Which “HSP70 level, ELISA signal (absence of compounds normalized as 1.00)” value does the source give for `CC(C)=CCC/C(C)=C/c1nc(-c2cccnc2)no1` [Compound 35a, (E)-5-(2,6-dimethylhepta-1,5-dien-1-yl)-3-(pyridin-3-yl)-1,2,4-oxadiazole] here?
A: 1.08

Q: `CC(C)=CCC/C(C)=C/CC/C(C)=C/COC(=O)Nc1ccc(C(F)(F)F)cc1` [Compound 8n, p-Trifluoromethylphenyl 2E, 6E-farnesyl carbamate] was tested. Which “HSP70 level, ELISA signal (absence of compounds normalized as 1.00)” value did it give?
A: 1.02

Q: How did the “HSP70 level, ELISA signal (absence of compounds normalized as 1.00)” value turn out when `CC(C)=CCC/C(C)=C/CC/C(C)=C/COC(=O)Nc1ccc(C)cc1` [Compound 8l, p-Tolyl 2E, 6E-farnesyl carbamate] was run?
A: 1.03

Q: How did the “HSP70 level, ELISA signal (absence of compounds normalized as 1.00)” value turn out when `CC(C)=CCC/C(C)=C/CC/C(C)=C/COC(=O)NC1CCCC1` [Compound 8c, Cyclopentyl 2E, 6E-farnesyl carbamate] was run?
A: 1.46

Q: `CC(C)=CCC/C(C)=C/c1nc(-c2ccccc2)no1` [Compound 35c, (E)-5-(2,6-dimethylhepta-1,5-dien-1-yl)-3-phenyl-1,2,4-oxadiazole] was tested. Which “HSP70 level, ELISA signal (absence of compounds normalized as 1.00)” value did it give?
A: 1.04

Q: Which “HSP70 level, ELISA signal (absence of compounds normalized as 1.00)” value does the source give for `COc1cc(C(=O)OC/C=C(\C)CC/C=C(\C)CC/C=C(\C)CCC=C(C)C)cc(OC)c1OC` [Compound 2h, 2E, 6E, 10E-Geranylgeranyl-3′,4′,5′-trimethoxybenzoate] here?
A: 0.94

Q: `CCCCNC(=S)OC/C=C(\C)CC/C=C(\C)CCC=C(C)C` [Compound 9c, n-Butyl 2E, 6E-farnesyl thiocarbamate] was tested. Which “HSP70 level, ELISA signal (absence of compounds normalized as 1.00)” value did it give?
A: 0.96

Q: With `CC(C)=CCC/C(C)=C/CC/C(C)=C/CC/C(C)=C/CNC12CC3CC(CC(C3)C1)C2` [Compound 17e, N-Adamantyl-2E,6E,10E-Geranylgeranyl amine] as the compound, how does the “HSP70 level, ELISA signal (absence of compounds normalized as 1.00)” value read?
A: 1.06

Q: How did the “HSP70 level, ELISA signal (absence of compounds normalized as 1.00)” value turn out when `C=CCNC(=O)OC/C=C(\C)CC/C=C(\C)CC/C=C(\C)CCC=C(C)C` [Compound 7k, Allyl 2E, 6E, 10E-geranylgeranyl carbamate] was run?
A: 1.20

Q: With `CC(C)=CCC/C(C)=C/CC/C(C)=C/CC/C(C)=C/c1ncc(C)o1` [Compound 16, 5-methyl-2-((1E,5E,9E)-2,6,10,14-tetramethylpentadeca-1,5,9,13-tetraen-1-yl)oxazole] as the compound, how does the “HSP70 level, ELISA signal (absence of compounds normalized as 1.00)” value read?
A: 0.89

Q: How did the “HSP70 level, ELISA signal (absence of compounds normalized as 1.00)” value turn out when `CC(C)=CCC/C(C)=C/CC/C(C)=C/COC(=O)NC12CC3CC(CC(C3)C1)C2` [Compound 8e, Adamantyl 2E, 6E-farnesyl carbamate] was run?
A: 1.09

Q: Which “HSP70 level, ELISA signal (absence of compounds normalized as 1.00)” value does the source give for `CC(C)=CCC/C(C)=C/c1nc(-c2ccccc2)co1` [Compound 32, (E)-2-(2,6-dimethylhepta-1,5-dien-1-yl)-4-phenyloxazole] here?
A: 0.96

Q: How did the “HSP70 level, ELISA signal (absence of compounds normalized as 1.00)” value turn out when `CC(C)=CCC/C(C)=C/CC/C(C)=C/CC/C(C)=C/C1=N[C@@H](CC(C)C)CO1` [Compound 27c, (S)-4-isobutyl-2-((1E,5E,9E)-2,6,10,14-tetramethylpentadeca-1,5,9,13-tetraen-1-yl)-4,5-dihydrooxazole] was run?
A: 0.95

Q: Which “HSP70 level, ELISA signal (absence of compounds normalized as 1.00)” value does the source give for `CCC(C)NC(=S)OC/C=C(\C)CC/C=C(\C)CCC=C(C)C` (centres unmarked) [Compound 9b, sec-Butyl 2E, 6E-farnesyl thiocarbamate] here?
A: 0.99

Q: With `CC(C)=CCC/C(C)=C/CC/C(C)=C/CC/C(C)=C/COC(=O)c1c(C)cc(C)cc1C` [Compound 2l, 2E, 6E, 10E-Geranylgeranyl-2′,4′,6′trimethylbenzoate] as the compound, how does the “HSP70 level, ELISA signal (absence of compounds normalized as 1.00)” value read?
A: 1.05

Q: Which “HSP70 level, ELISA signal (absence of compounds normalized as 1.00)” value does the source give for `CC(C)=CCC/C(C)=C/CC/C(C)=C/c1cnco1` [Compound 12, 5-((1E,5E)-2,6,10-trimethylundeca-1,5,9-trien-1-yl)oxazole] here?
A: 1.01

Q: Which “HSP70 level, ELISA signal (absence of compounds normalized as 1.00)” value does the source give for `CC(C)=CCC/C(C)=C/CC/C(C)=C/COC(=O)NC(C)C` [Compound 8a, iso-Propyl 2E,6E-farnesyl carbamate] here?
A: 1.33

Q: Which “HSP70 level, ELISA signal (absence of compounds normalized as 1.00)” value does the source give for `CC(C)=CCC/C(C)=C/CC/C(C)=C/COC(=S)NCCCN1CCOCC1` [Compound 9k, Morpholinyl-N-3′-propyl 2E, 6E-farnesyl thiocarbamate] here?
A: 0.97

Q: Which “HSP70 level, ELISA signal (absence of compounds normalized as 1.00)” value does the source give for `CC(C)=CCC/C(C)=C/CC/C(C)=C/CC/C(C)=C/c1nnc(-c2ccncc2)o1` [Compound 29f, 2-(pyridin-4-yl)-5-((1E,5E,9E)-2,6,10,14-tetramethylpentadeca-1,5,9,13-tetraen-1-yl)-1,3,4-oxadiazole] here?
A: 1.01
